Data: US11958847B1, “Pyrazolidinedione derivatives and their use as PPAR-gamma inhibitors” (KING FAISAL UNIVERSITY, priority 2023, dated 2024)

Tested on: diabetic rats
Assay: Anti-hyperglycemic activity evaluation, Streptozotocin (STZ) model
Assay type: in vivo, albino rats
Details: for inhibition in vivo at 50 mg/kg: compound 50 mg/kg oral; for Blood glucose level 5-day / Blood glucose level 10-day: mean ± SEM, n=6
Method: Diabetes was experimentally generated in albino rats by intraperitoneal injection of a solution of STZ (60 mg/kg) in sterile normal saline. […] Rats were partitioned into 8 groups consisting of 6 rats in each group (n=6). The control group consisted of the first group of diabetic animals serving as vehicle control and treated orally with carboxymethylcellulose (CMC) (0.5%, 1 ml) alone; Group 2 of diabetic rats was treated with rosiglitazone 100 mg/kg. […] Blood collections were operated by tail vein sampling. The measurements of blood glucose were performed at 0, 5 and 10 days interval. Bayer's Contour TS system was used in order to monitor blood glucose level. In overnight-fasted rats, fasting blood glucose level was measured in all the groups as a base line at 0 time. All blood glucose data were expressed as mean±SEM. The analysis of the data including the variance analysis (ANOVA) and all mean comparisons were accomplished by Tukey-Kramer method. Results are regarded as significant when P<0.01. The anti-hyperglycemic activity (AA) was presented as % AA and computed as follows: % AA=100×[blood glucose level (0-day)−blood glucose level (10-day)]/[blood glucose level (0-day)].

[1] = Rattus norvegicus, 240 h, % AA=100×[glucose (0-day)−glucose (10-day)]/[glucose (0-day)]
[2] = compound 50 mg/kg oral for 7 continuous days

Cc1c(Cl)ccc2nc(NC(=O)COc3ccc(C=C4C(=O)NNC4=O)cc3)sc12 [Compound 6, N-(6-chloro-7-methylbenzo[d]thiazol-2-yl)-2-(4-((3,5-dioxopyrazolidin-4-ylidene)methyl)phenoxy)acetamide]
inhibition in vivo at 50 mg/kg [1]: 58.6%
Blood glucose level 5-day [2]: 161.3 ± 4.5 mg/dL
Blood glucose level 10-day [2]: 143.9 ± 5.3 mg/dl

Cc1c(Cl)ccc2nc(NC(=O)CCOc3ccc(C=C4C(=O)NNC4=O)cc3)sc12 [Compound 13, N-(6-chloro-7-methylbenzo[d]thiazol-2-yl)-3-(4-((3,5-dioxopyrazolidin-4-ylidene)methyl)phenoxy)propanamide]
inhibition in vivo at 50 mg/kg [1]: 65.5%
Blood glucose level 5-day [2]: 168.4 ± 4.3 mg/dL
Blood glucose level 10-day [2]: 119.1 ± 4.3 mg/dl

Cc1cc2nc(NC(=O)COc3ccc(C=C4C(=O)NNC4=O)cc3)sc2cc1Cl [Compound 4, N-(6-chloro-5-methylbenzo[d]thiazol-2-yl)-2-(4-((3,5-dioxopyrazolidin-4-ylidene)methyl)phenoxy)acetamide]
inhibition in vivo at 50 mg/kg [1]: 66.4%
Blood glucose level 5-day [2]: 160.2 ± 4.1 mg/dL
Blood glucose level 10-day [2]: 113.4 ± 2.6 mg/dl

CN(CCOc1ccc(CC2SC(=O)NC2=O)cc1)c1ccccn1 (stereo not drawn) [Rosiglitazone, reference compound]
inhibition in vivo at 100 mg/kg (Rattus norvegicus, po, 240 h, rosiglitazone 100 mg/kg, % AA=100×[glucose (0-day)−glucose (10-day)]/[glucose (0-day)]): 62%
Blood glucose level 5-day (rosiglitazone 100 mg/kg): 162.1 ± 3.8 mg/dL
Blood glucose level 10-day (rosiglitazone 100 mg/kg): 129.7 ± 3.7 mg/dl

O=C(CCOc1ccc(C=C2C(=O)NNC2=O)cc1)Nc1nc2ccc(Cl)cc2s1 [Compound 8, N-(6-chlorobenzo[d]thiazol-2-yl)-3-(4-((3,5-dioxopyrazolidin-4-ylidene)methyl)phenoxy)propanamide]
inhibition in vivo at 50 mg/kg [1]: 68.7%
Blood glucose level 5-day [2]: 166.5 ± 3.7 mg/dL
Blood glucose level 10-day [2]: 106.1 ± 5.1 mg/dl

O=C(CCOc1ccc(C=C2C(=O)NNC2=O)cc1)Nc1nc2ccc(C(F)(F)F)cc2s1 [Compound 9, 3-(4-((3,5-dioxopyrazolidin-4-ylidene)methyl)phenoxy)-N-(6-(trifluoromethyl)benzo[d]thiazol-2-yl)propanamide]
inhibition in vivo at 50 mg/kg [1]: 70.1%
Blood glucose level 5-day [2]: 159.6 ± 4.6 mg/dL
Blood glucose level 10-day [2]: 105.4 ± 3.2 mg/dl

O=C(CCOc1ccc(C=C2C(=O)NNC2=O)cc1)Nc1nc2ccc(OC(F)(F)F)cc2s1 [Compound 10, 3-(4-((3,5-dioxopyrazolidin-4-ylidene)methyl)phenoxy)-N-(6-(trifluoromethoxy)benzo[d]thiazol-2-yl)propanamide]
inhibition in vivo at 50 mg/kg [1]: 69.8%
Blood glucose level 5-day [2]: 153.2 ± 4.2 mg/dL
Blood glucose level 10-day [2]: 105.2 ± 4.7 mg/dl

CCc1cc2nc(NC(=O)CCOc3ccc(C=C4C(=O)NNC4=O)cc3)sc2cc1Cl [Compound 12, N-(6-chloro-5-ethylbenzo[d]thiazol-2-yl)-3-(4-((3,5-dioxopyrazolidin-4-ylidene)methyl)phenoxy)propanamide]
inhibition in vivo at 50 mg/kg [1]: 64.2%
Blood glucose level 5-day [2]: 171.6 ± 5.1 mg/dL
Blood glucose level 10-day [2]: 121.9 ± 3.6 mg/dl

O=C(COc1ccc(C=C2C(=O)NNC2=O)cc1)Nc1nc2ccc(OC(F)(F)F)cc2s1 [Compound 3, 2-(4-((3,5-dioxopyrazolidin-4-ylidene)methyl)phenoxy)-N-(6-(trifluoromethoxy)benzo[d]thiazol-2-yl)acetamide]
inhibition in vivo at 50 mg/kg [1]: 59.5%
Blood glucose level 5-day [2]: 172.4 ± 3.4 mg/dL
Blood glucose level 10-day [2]: 141.6 ± 2.8 mg/dl

CCc1cc2nc(NC(=O)COc3ccc(C=C4C(=O)NNC4=O)cc3)sc2cc1Cl [Compound 5, N-(6-chloro-5-ethylbenzo[d]thiazol-2-yl)-2-(4-((3,5-dioxopyrazolidin-4-ylidene)methyl)phenoxy)acetamide]
inhibition in vivo at 50 mg/kg [1]: 62.8%
Blood glucose level 5-day [2]: 155.3 ± 3.9 mg/dL
Blood glucose level 10-day [2]: 127.1 ± 3.1 mg/dl

Cc1cc2nc(NC(=O)CCOc3ccc(C=C4C(=O)NNC4=O)cc3)sc2cc1Cl [Compound 11, N-(6-chloro-5-methylbenzo[d]thiazol-2-yl)-3-(4-((3,5-dioxopyrazolidin-4-ylidene)methyl)phenoxy)propanamide]
inhibition in vivo at 50 mg/kg [1]: 68.4%
Blood glucose level 5-day [2]: 168.7 ± 3.4 mg/dL
Blood glucose level 10-day [2]: 107.0 ± 2.4 mg/dl

O=C(COc1ccc(C=C2C(=O)NNC2=O)cc1)Nc1nc2c(Cl)cc(F)cc2s1 [Compound 7, N-(4-chloro-6-fluorobenzo[d]thiazol-2-yl)-2-(4-((3,5-dioxopyrazolidin-4-ylidene)methyl)phenoxy)acetamide]
inhibition in vivo at 50 mg/kg [1]: 66.3%
Blood glucose level 5-day [2]: 174.1 ± 4.2 mg/dL
Blood glucose level 10-day [2]: 115.2 ± 4.2 mg/dl

O=C(COc1ccc(C=C2C(=O)NNC2=O)cc1)Nc1nc2ccc(Cl)cc2s1 [Compound 1, N-(6-chlorobenzo[d]thiazol-2-yl)-2-(4-((3,5-dioxopyrazolidin-4-ylidene)methyl)phenoxy)acetamide]
inhibition in vivo at 50 mg/kg [1]: 63.5%
Blood glucose level 5-day [2]: 157.5 ± 3.7 mg/dL
Blood glucose level 10-day [2]: 123.9 ± 4.2 mg/dl

O=C(CCOc1ccc(C=C2C(=O)NNC2=O)cc1)Nc1nc2c(Cl)cc(F)cc2s1 [Compound 14, N-(4-chloro-6-fluorobenzo[d]thiazol-2-yl)-3-(4-((3,5-dioxopyrazolidin-4-ylidene)methyl)phenoxy)propanamide]
inhibition in vivo at 50 mg/kg [1]: 68.9%
Blood glucose level 5-day [2]: 162.5 ± 5.6 mg/dL
Blood glucose level 10-day [2]: 109.6 ± 5.4 mg/dl

O=C(COc1ccc(C=C2C(=O)NNC2=O)cc1)Nc1nc2ccc(C(F)(F)F)cc2s1 [Compound 2, 2-(4-((3,5-dioxopyrazolidin-4-ylidene)methyl)phenoxy)-N-(6-(trifluoromethyl)benzo[d]thiazol-2-yl)acetamide]
inhibition in vivo at 50 mg/kg [1]: 64.3%
Blood glucose level 5-day [2]: 163.7 ± 2.8 mg/dL
Blood glucose level 10-day [2]: 123.4 ± 3.5 mg/dl
